# In patent US11466286B2, “Methods and compositions for conferring and/or enhancing herbicide tolerance using protoporphyrinogen oxidase or variant thereof” (FarmHannong Co., Ltd., priority 2016, dated 2022):
# How the values were obtained:
# Assay in all cases: Growth of transformed BT3 (ΔPPO) on tiafenacil media
# Format in all cases: cell-based
# [1] = system: PPO-deficient BT3 E. coli (ΔPPO) with A. thaliana PPO1 mutant AtPPO1 SLYM (Y426M, S305L, SEQ ID NO: 7)
# Experimental: (§1) After transforming PPO-deficient BT3 E. coli (ΔPPO) with CyPPO10 or CyPPO13, the transformed BT3 (ΔPPO) was cultured on LB agar plates containing PPO-inhibiting herbicide to examine the growth level of the transformed BT3 (ΔPPO). BT3 (ΔPPO) strain was obtained from Hokkaido University (Japan). The BT3 (ΔPPO) strain is deficient in hemG-type PPO and has kanamycin tolerance (refer to “Watanabe et al., Dual targeting of spinach protoporphyrinogen oxidase II to mitochondria and chloroplasts by alternative use of two in-frame […], JBC 2001 276(23):20474-20481; Che et al., Molecular Characterization and Subcellular Localization of Protoporphyrinogen Oxidase in Spinach Chloroplasts, Plant Physiol. 2000 September; 124(1):59-70”).
# (§2) For seed culture of E. coli transformed with respective genes, each single colony of E. coli transformant as provided above was cultured in 3 ml of LB broth containing chloramphenicol overnight (220 rpm, 37° C.), and 50 to 100 μl were subcultured in a new 3 ml of LB broth, and they were cultured until absorbance (OD600) became 0.5 to 1, and they were diluted with LB broth to absorbance (OD600) of 0.5. The diluted solution was serially diluted again 5 times by a factor of one tenth with LB broth. […] The LB Agar media were incubated at 37° C., under light condition, and level of inhibiting growth was observed after 16 to 20 hours of incubation.
# (§3) Plant physiol. 2003 133:736-747).
# [2] = system: PPO-deficient BT3 E. coli (ΔPPO) with wild type A. thaliana PPO1 (AtPPO1 WT, SEQ ID NO: 5); settings: 100 μM tiafenacil
# Experimental: as §1, §2, §3
# [3] = system: PPO-deficient BT3 E. coli (ΔPPO) with CyPPO13 wild type (Cy13 WT, SEQ ID NO: 4)
# Experimental: as §1
# (§4) CyPPO10 and CyPPO13 genes were cloned in pACBB vector (Plasmid #32551; Addgene; refer to FIG. 1).
# as §2
# [4] = system: PPO-deficient BT3 E. coli (ΔPPO) with CyPPO10 wild type (Cy10 WT, SEQ ID NO: 2)
# Experimental: as §1, §4, §2
compound,measurement,setting,value
COC(=O)CCNC(=O)C(C)Sc1cc(-n2c(=O)cc(C(F)(F)F)n(C)c2=O)c(F)cc1Cl (stereo not shown) [Tiafenacil],growth,[1]; 400 μM tiafenacil,hardly grew
same,growth,[1]; from 100 μM tiafenacil,gradually started to exhibit growth inhibition
same,growth,[2],did not grow
same,growth,[3]; 100 μM tiafenacil,at the similar level to that of the medium containing no tiafenacil
same,growth,[3]; 400 μM tiafenacil,grew well
same,growth,[4]; 100 μM tiafenacil,at the similar level to that of the medium containing no tiafenacil
same,growth,[4]; 400 μM tiafenacil,grew well
